Values quoted from earlier work as cited in patent publication US12728096B2, “Pharmaceutical composition comprising enzalutamide” (Synthon B.V., priority 2019, dated 2026).

How the values were obtained:
[1] = pH 1 to 11

For CNC(=O)c1ccc(N2C(=S)N(c3ccc(C#N)c(C(F)(F)F)c3)C(=O)C2(C)C)cc1F [Enzalutamide, 4-[3-[4-cyano-3-(trifluoromethyl)phenyl]-5,5-dimethyl-4-oxo-2-sulfanylideneimidazolidin-1-yl]-2-fluoro-N-methylbenzamide], the “permeability (BCS)” value is given as “high permeability”, the “solubility (BCS)” value is given as “low solubility” and the solubility in water [1] is given as “practically insoluble”.
